Data taken from patent US9295732B2, “Conjugated TLR7 and/or TLR8 and TLR2 polycationic agonists” (CAYLA, priority 2013, dated 2016).
Values joined by “and” are separate entries in the source; they are usually repeats but may differ in a detail not shown here. Equal entries are not always repeated.

Columns and labels:
B16-F1 cells = experiment: Cell transfection with SEAP plasmid, B16-F1; type: cell-based, mouse; settings: in complex with pVitro14 LGFP SEAP plasmid, 48 hours, SEAP expression; FIG. 5B
Protocol: The TLR7-TLR2 molecules were tested for their ability as polyamine molecules to transport plasmid DNA (pDNA) into cells. The pVitro14 LGFP SEAP plasmid (InvivoGen) was complexed to TLR7-TLR2 polyamine molecules and to the control cationic lipid transfection agent, LyoVec™ (InvivoGen). The human HEK293 (ATCC, CRL-1573) and mouse B16-F1 melanoma (ATCC, CRL-6323) cell lines were seeded at a density of 50 000 cells/well and 20 000 cells/well respectively, in the absence or presence of different volumes of the plasmid encoding for the SEAP protein in complex with TLR7-TLR2 polyamine molecules for 48 hours at 37° C. and 10% CO2. Transfection efficiency was assessed by measuring SEAP reporter gene expression: 20 μl of supernatant was sampled and mixed with 180 μl of QUANTI-Blue™ Detection (InvivoGen). In the presence of alkaline phosphatase SEAP, the color of QUANTI-Blue™ changes from pink to purple/blue. The intensity of the blue hue reflects the activity of SEAP. The levels of SEAP secretion were determined quantitatively by reading the OD at 620-655 nm using a spectrophotometer, iMark™ Microplate Reader (BIO-RAD).

B16-F1 tumor = experiment: In vivo mouse B16-F1 tumor model, molecule alone; set-up: species or system C57BL/6 mice; settings: by day 23, intra-tumoral injections, FIG. 8A
Protocol: Measurements were performed under gas anesthesia.
The second group received intra-tumoral injections of CL413 molecule alone (a TLR7-TLR2 Pam2CSK4-based molecule). Third and forth groups received intra-tumoral injections of the TLR2 ligand, Pam2CSK4 alone, and the TLR7 ligand alone, respectively. A fifth group received a combined treatment of Pam2CSK4 and TLR7 ligand, in solution at the equivalent molecule quantity of the respective TLR2 and TLR7 moieties in CL413 (in 100 μl Bionolyte G5® with Pluronic® F-68 2%) for a total of 3 injections.

murine TLR7 = target: T1, murine TLR7 (Mus musculus, UniProt P58681); experiment: HEK-Blue mTLR7 NF-κB/AP-1 SEAP reporter assay; type: cell-based; settings: HEK-Blue mTLR7 cells, 10 μg/mL to 10 pg/ml, 24 hours, OD at 655 nm, FIG. 2
T1 construct: host or cells: HEK293 (HEK-Blue™ mTLR7)
T1 sequence (P58681 27-1050): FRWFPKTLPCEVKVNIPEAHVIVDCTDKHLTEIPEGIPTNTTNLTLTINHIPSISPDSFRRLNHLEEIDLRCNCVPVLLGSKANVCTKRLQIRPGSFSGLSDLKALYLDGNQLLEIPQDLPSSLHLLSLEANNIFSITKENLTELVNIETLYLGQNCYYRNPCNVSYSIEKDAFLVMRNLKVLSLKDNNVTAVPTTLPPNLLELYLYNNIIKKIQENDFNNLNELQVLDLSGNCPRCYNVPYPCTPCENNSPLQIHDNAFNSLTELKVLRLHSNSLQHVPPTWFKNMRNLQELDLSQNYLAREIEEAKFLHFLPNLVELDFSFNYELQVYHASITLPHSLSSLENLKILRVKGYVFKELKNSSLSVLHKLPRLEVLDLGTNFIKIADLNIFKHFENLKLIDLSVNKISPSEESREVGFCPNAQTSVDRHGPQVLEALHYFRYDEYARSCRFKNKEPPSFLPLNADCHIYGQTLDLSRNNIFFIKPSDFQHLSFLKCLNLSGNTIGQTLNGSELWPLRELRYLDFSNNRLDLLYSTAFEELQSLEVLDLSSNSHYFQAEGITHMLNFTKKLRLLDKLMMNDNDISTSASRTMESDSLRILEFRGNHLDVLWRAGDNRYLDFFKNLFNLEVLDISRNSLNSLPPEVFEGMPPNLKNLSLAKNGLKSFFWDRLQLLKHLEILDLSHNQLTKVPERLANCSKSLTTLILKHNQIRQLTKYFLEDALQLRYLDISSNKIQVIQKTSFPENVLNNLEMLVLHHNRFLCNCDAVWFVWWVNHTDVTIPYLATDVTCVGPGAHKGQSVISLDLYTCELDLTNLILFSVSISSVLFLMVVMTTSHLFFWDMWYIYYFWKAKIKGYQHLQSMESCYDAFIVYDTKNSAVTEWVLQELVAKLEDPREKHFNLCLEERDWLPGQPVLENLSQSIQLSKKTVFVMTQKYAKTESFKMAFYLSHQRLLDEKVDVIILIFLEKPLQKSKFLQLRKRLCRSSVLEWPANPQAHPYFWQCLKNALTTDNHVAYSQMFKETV
Outline: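 HEK293 cells stably expressing the given TLR, or RAW 264.7-derived cells (50,000 or 100,000 cells/well respectively), carry an NF-κB/AP-1-inducible SEAP reporter. Conjugated TLR7-TLR2 agonists at final 10 μg/mL to 10 pg/ml, 24 h at 37° C. SEAP read colorimetrically as OD at 655 nm in detection medium.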

[1] = Nanoparticle (lipoplex) size by dynamic light scattering; settings: 25° C., triplicate; for Mean Diameter: complexes with pDNA 3:24 (w:w), dynamic light scattering; for PDI: polydispersity index of complexes with pDNA 3:24 (w:w);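 as to all read-outs here: lipoplexes of TLR7-TLR2 polyamine conjugates with plasmid DNA, formed over 30 min at room temperature in serum-free medium or 5% glucose, diameter in nm, PDI dimensionless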

Row | Compound | ability to transfect B16-F1 cells (B16-F1 cells) | tumor volume (B16-F1 tumor) | ability to activate mTLR7 (murine TLR7) | Mean Diameter [1] | PDI [1]
1 | (6S,9S,12S,15S,18S,21R)-6,25-diamino-21-(4-((6-amino-2-(butylamino)-8-hydroxy-9H-purin-9-yl)methyl)phenylcarbamoyl)-12,15,18-tris(4-aminobutyl)-9-(hydroxyl methyl)-7,10,13,16,19-pentaoxo-4-thia-8,11,14,17,20-pentaazapentacosane-1,2-diyl dipalmitate [CL413] | lack the ability to transfect cells | no increase in tumor volume | activate mTLR7 |  | 
2 | CCCCCCCCCCCCCCCC(=O)OCC(CSC[C@H](N)C(=O)N[C@@H](CCC(=O)NCCCNCCCCNCCCN)C(=O)Nc1ccc(Cn2c(O)nc3c(N)nc(NCCCC)nc32)cc1)OC(=O)CCCCCCCCCCCCCCC (stereo partly drawn) [CL527, (6R,9S)-6,25-diamino-9-(4-((6-amino-2-(butylamino)-8-hydroxy-9H-purin-9-yl)methyl)phenylcarbamoyl)-7,12-dioxo-4-thia-8,13,17,22-tetraazapentacosane-1,2-diyl dipalmitate] | transfect B16-F1 cells |  | activate mTLR7 | 175.1 nm and 156.9 nm and 168.3 nm | 0.253 and 0.239 and 0.258
3 | CCCCCCCCCCCCCCCC(=O)N[C@@H](CSCC(COC(=O)CCCCCCCCCCCCCCC)OC(=O)CCCCCCCCCCCCCCC)C(=O)N[C@@H](CO)C(=O)N[C@@H](CCCCN)C(=O)N[C@@H](CCCCN)C(=O)N[C@@H](CCCCN)C(=O)N[C@@H](CCCCN)C(=O)Nc1ccc(Cn2c(O)nc3c(N)nc(NCCCC)nc32)cc1 (stereo partly drawn) [CL534, ((6R,9S,12S,15S,18S,21S)-25-amino-21-(4-((6-amino-2-(butylamino)-8-hydroxy-9H-purin-9-yl)methyl)phenylcarbamoyl)-12,15,18-tris(4-aminobutyl)-9-(hydroxylmethyl)-7,10,13,16,19-pentaoxo-6-palmitamido-4-thia-8,11,14,17,20-pentaazapentacosane-1,2-diyl dipalmitate] | lack the ability to transfect cells |  | activate mTLR7 |  | 
4 | CCCCCCCCCCCCCCCC(=O)OCC(CSC[C@H](N)C(=O)N[C@@H](COC(=O)c1ccc(Cn2c(O)nc3c(N)nc(NCCCC)nc32)cc1)C(=O)NCCCNCCCCNCCCN)OC(=O)CCCCCCCCCCCCCCC (stereo partly drawn) [CL514, (6R,9S)-6,23-diamino-9-((4-((6-amino-2-(butylamino)-8-hydroxy-9H-purin-9-yl)methyl)benzoyloxy)methyl)-7,10-dioxo-4-thia-8,11,15,20-tetraazatricosane-1,2-diyl dipalmitate] | transfect B16-F1 cells |  | activate mTLR7 | 249.1 nm and 309.6 nm and 258.3 nm | 0.303 and 0.354 and 0.372
5 | CCCCCCCCCCCCCCCC(=O)OCC(CSC[C@H](N)C(=O)NCCCNCCCCNCCCNC(=O)CNC(=O)c1ccc(Cn2c(O)nc3c(N)nc(NCCCC)nc32)cc1)OC(=O)CCCCCCCCCCCCCCC (stereo partly drawn) [CL553, (20R)-20-amino-1-(4-((6-amino-2-(butylamino)-8-hydroxy-9H-purin-9-yl)methyl)phenyl)-1,4,19-trioxo-22-thia-2,5,9,14,18-pentaazapentacosane-24,25-diyl dipalmitate] | transfect B16-F1 cells |  | activate mTLR7 | 170.0 nm and 190.0 nm and 180.2 nm | 0.226 and 0.230 and 0.237
